Like-named read-outs stand apart in the source and are kept apart here.
Experiments:
[1] = tested on: Phaedon cochleariae; assay: Phaedon test (PHAECO spray treatment); format: in vivo; conditions: Chinese cabbage leaf discs, after 7 days
Experimental: Phaedon Test ([…] Spray Treatment) Solvent: 78.0 parts by weight of acetone • • 1.5 parts by weight of dimethylformamide Emulsifier: 0.5 part by weight of alkylaryl polyglycol ether To produce an appropriate active ingredient formulation, 1 part by weight of active ingredient is mixed with the stated amounts of solvent and emulsifier, and the concentrate is diluted with emulsifier-containing water to the desired concentration. Leaf discs of Chinese cabbage (Brassica pekinensis) are sprayed with an active ingredient formulation of the desired concentration and, after drying, populated with larvae of the mustard beetle (Phaedon cochleariae). After 7 days, the efficacy in % is determined. 100% means that all of the beetle larvae have been killed; 0% means that none of the beetle larvae have been killed.

[2] = tested on: Spodoptera frugiperda; assay: Spodoptera frugiperda test (SPODFR spray treatment); format: in vivo; conditions: maize leaf discs, after 7 days
Experimental: Spodoptera frugiperda Test (SPODFR Spray Treatment) Solvent: 78.0 parts by weight of acetone • • 1.5 parts by weight of dimethylformamide To produce an appropriate active ingredient formulation, 1 part by weight of active ingredient is mixed with the stated amounts of solvent and emulsifier, and the concentrate is diluted with emulsifier-containing water to the desired concentration. Leaf discs of maize (Zea mays) are sprayed with an active ingredient formulation of the desired concentration and, after drying, populated with caterpillars of the armyworm (Spodoptera frugiperda). After 7 days, the efficacy in % is determined 100% means that all of the caterpillars have been killed; 0% means that none of the caterpillars have been killed.

[3] = tested on: Tetranychus urticae; assay: Tetranychus test, OP-resistant (TETRUR spray treatment); format: in vivo; conditions: bean leaf discs, after 6 days
Experimental: Tetranychus Test, OP-Resistant (TETRUR Spray Treatment)
Solvent: 78.0 parts by weight of acetone • • 1.5 parts by weight of dimethylformamide
Emulgator: 0.5 part by weight of alkylaryl polyglycol ether
To produce an appropriate active ingredient formulation, 1 part by weight of active ingredient is mixed with the stated amounts of solvent and emulsifier, and the concentrate is diluted with emulsifier-containing water to the desired concentration.
Discs of bean leaves (Phaseolus vulgaris) infested by all stages of the red spider mite (Tetranychus urticae) are sprayed with an active ingredient formulation of the desired concentration.
After 6 days, the efficacy in % is determined. 100% means that all of the spider mites have been killed; 0% means that none of the spider mites have been killed.

[4] = logP (HPLC-MS); format: physicochemical
[5] = HPLC, reversed-phase column (C18), acidic range pH 2.7, acetonitrile (0.1% formic acid)/water gradient, 43° C., calibration with unbranched alkan-2-ones, read-out: log p
[6] = HPLC, reversed-phase column (C18), acidic range pH 2.7, acetonitrile (0.1% formic acid)/water gradient, 43° C., calibration with unbranched alkan-2-ones
[7] = Phaedon cochleariae, foliar, 168 h, application rate 100 g/ha, read-out: efficacy in %
[8] = HPLC, reversed-phase column (C18), 43° C., acidic range pH 2.7, EEC directive 79/831 Annex V.A8, two values = both regioisomers (G = N)

SMILES	log p [4, 6]	efficacy in % ([1]; application rate 100 g/ha) [%]	efficacy in % ([2]; application rate 100 g/ha) [%]	efficacy in % ([3]; application rate 100 g/ha) [%]	further results
CCn1c(C(=O)NC(c2cccc(C(F)(F)F)c2)C(F)(F)F)nc2cc(C(=O)NC3CC3)c(Cl)cc21 (centres unmarked) [Compound 4, 6-chloro-N^5-cyclopropyl-1-ethyl-N^2-{2,2,2-trifluoro-1-[3-(trifluoromethyl)phenyl]ethyl}-1H-benzimidazole-2,5-dicarboxamide]					pest or weed control at 500 g/ha ([1]; Phaedon cochleariae, foliar, 168 h, application rate 500 g/ha, read-out: efficacy in %): 100%; efficacy in % ([2]; application rate 500 g/ha): 100%; efficacy in % ([3]; application rate 500 g/ha): 100%; chromatographic logP [4, 5]: 3.67; chromatographic logP ([4]; HPLC-MS): 3.71
CCn1c(C(=O)NC(c2cccc(C(F)(F)F)c2)C(F)(F)F)cc2cc(C(=O)NC(C)C#N)c(Cl)cc21 (centres unmarked) [Compound 9]	3.72	100	100	90	
CCn1c(C(=O)NC(c2cc(Cl)cc(Cl)c2)C(F)(F)F)cc2cc(C(=O)NC3(C#N)CC3)c(Cl)cc21 (centres unmarked) [Compound 43]	4.14	100	100	100	
Cn1c(C(=O)NC(c2cccc(Br)c2)C(F)(F)F)cc2cc(C(=O)NC3CC3)c(Cl)cc21 (centres unmarked) [Compound 47]	3.42	100		90	
Cn1c(C(=O)NC(c2ccc(F)c(Br)c2)C(F)(F)F)cc2cc(C(=O)NC3CC3)c(Cl)cc21 (centres unmarked) [Compound 51]	3.61	100	100	100	
Cn1c(C(=O)NC(c2ccc(F)c(Cl)c2)C(F)(F)F)cc2cc(C(=O)NC3CC3)c(Cl)cc21 (centres unmarked) [Compound 53]	3.42	100	100	100	
C#CCn1c(C(=O)NC(c2cccc(Cl)c2)C(F)(F)F)cc2cc(C(=O)NC3(C#N)CC3)c(Cl)cc21 (centres unmarked) [Compound 58]	3.42	100	100	100	
C#CCn1c(C(=O)NC(c2cccc(Br)c2)C(F)(F)F)cc2cc(C(=O)NC3CC3)c(Cl)cc21 (centres unmarked) [Compound 59]	3.44		100	100	
C#CCn1c(C(=O)NC(c2cccc(Br)c2)C(F)(F)F)cc2cc(C(=O)NC3(C#N)CC3)c(Cl)cc21 (centres unmarked) [Compound 60]	3.48	100	100	100	
C#CCn1c(C(=O)NC(c2ccc(F)c(Cl)c2)C(F)(F)F)cc2cc(C(=O)NC3(C#N)CC3)c(Cl)cc21 (centres unmarked) [Compound 64]	3.41	100	100	100	
C#CCn1c(C(=O)NC(c2cc(Cl)cc(Cl)c2)C(F)(F)F)cc2cc(C(=O)NC3CC3)c(Cl)cc21 (centres unmarked) [Compound 65]	3.90		100	100	
C#CCn1c(C(=O)NC(c2cc(Cl)cc(Cl)c2)C(F)(F)F)cc2cc(C(=O)NC3(C#N)CC3)c(Cl)cc21 (centres unmarked) [Compound 66]	3.87	100	100	100	
CCn1c(C(=O)NC(c2cccc(Cl)c2)C(F)(F)F)cc2cc(C(=O)NC3CC3)c(C)cc21 (centres unmarked) [Compound 184]	3.57	100	100	100	
CCn1c(C(=O)NC(c2cccc(Cl)c2)C(F)(F)F)cc2cc(C(=O)NC3(C#N)CC3)c(C)cc21 (centres unmarked) [Compound 185]	3.58	100	100	100	
CCn1c(C(=O)NC(c2ccc(F)c(C(F)(F)F)c2)C(F)(F)F)cc2cc(C(=O)NC3(C#N)CC3)c(C)cc21 (centres unmarked) [Compound 189]	3.77	100	100	100	
CCn1c(C(=O)NC(c2cccc(C(F)(F)F)c2)C(F)(F)F)cc2cc(C(=O)NCCC#N)c(Cl)cc21 (centres unmarked) [Compound 263]	3.53	100	100	100	
CCn1c(C(=O)NC(c2cccc(C(F)(F)F)c2)C(F)(F)F)cc2cc(C(=O)NC3(C(N)=S)CC3)c(Cl)cc21 (centres unmarked) [Compound 273, N^5-(1-carbamothioylcyclopropyl)-6-chloro-1-ethyl-N^2-{2,2,2-trifluoro-1-[3-(trifluoromethyl)phenyl]ethyl}-1H-indole-2,5-dicarboxamide]			100	100	pest or weed control at 100 g/ha [1, 7]: 100%; chromatographic logP [4, 5]: 3.56; chromatographic logP ([4]; HPLC-MS): 3.56
CCn1c(C(=O)NC(c2cccc(C(F)(F)F)c2)C(F)(F)F)c(C#N)c2cc(C(=O)NC3(C#N)CC3)c(Cl)cc21 (centres unmarked) [Compound 279, 6-chloro-3-cyano-N5-(1-cyanocyclopropyl)-1-ethyl-N2-{2,2,2-trifluoro-1-[3-(trifluoromethyl)phenyl]ethyl}-1H-indole-2,5-dicarboxamide]			100	100	pest or weed control at 100 g/ha [1, 7]: 100%; chromatographic logP ([4]; HPLC, reversed-phase column (C18), 43° C., acidic range pH 2.7, EEC directive 79/831 Annex V.A8, two values = both regioisomers (G = N), read-out: log p): 3.45; chromatographic logP ([4]; HPLC-MS): 3.45
N#CC1(NC(=O)c2cc3cc(C(=O)NC(c4cccc(C(F)(F)F)c4)C(F)(F)F)n(Cc4ccccc4)c3cc2Cl)CC1 (centres unmarked) [Compound 284]		100	100	100	log p [4, 8]: 4.07
N#CC1(NC(=O)c2cc3cc(C(=O)NC(c4cccc(C(F)(F)F)c4)C(F)(F)F)n(COCc4ccccc4)c3cc2Cl)CC1 (centres unmarked) [Compound 286]		100		100	log p [4, 8]: 4.17
CCOCn1c(C(=O)NC(c2cccc(C(F)(F)F)c2)C(F)(F)F)cc2cc(C(=O)NC3(C#N)CC3)c(Cl)cc21 (centres unmarked) [Compound 287]		100	100	100	log p [4, 8]: 3.70
CCn1c(C(=O)NC(c2ccc(F)c(F)c2)C(F)(F)F)cc2cc(C(=O)NC3(C#N)CC3)c(C)cc21 (centres unmarked) [Compound 292]		100	100	100	log p [4, 8]: 3.48
N#CCn1c(C(=O)NC(c2cccc(C(F)(F)F)c2)C(F)(F)F)cc2cc(C(=O)NC3(C#N)CC3)c(Cl)cc21 (centres unmarked) [Compound 294]		100			efficacy in % ([3]; application rate 500 g/ha): 100%; log p [4, 8]: 3.30
CCn1c(C(=O)NC(c2cc(Cl)cc(Cl)c2)C(F)(F)F)nc2cc(C(=O)NC3CC3)c(Cl)cc21 (centres unmarked) [Compound 317]					efficacy in % ([1]; application rate 500 g/ha): 100%; efficacy in % ([2]; application rate 500 g/ha): 100%; efficacy in % ([3]; application rate 500 g/ha): 100%

Further lines, with some results ahead:

log p [4, 6]	SMILES	efficacy in % ([1]; application rate 100 g/ha) [%]	efficacy in % ([2]; application rate 100 g/ha) [%]	efficacy in % ([3]; application rate 100 g/ha) [%]	further results
3.91	C#CCC(C#N)NC(=O)c1cc2cc(C(=O)NC(c3cccc(C(F)(F)F)c3)C(F)(F)F)n(CC)c2cc1Cl (centres unmarked) [Compound 268]	100	100	100	
4.03	N#CC1(NC(=O)c2cc3cc(C(=O)NC(c4cccc(C(F)(F)F)c4)C(F)(F)F)n(CC4CC4)c3cc2Cl)CC1 (centres unmarked) [Compound 272]	100	100	100	
4.03	N#CC1(NC(=O)c2cc3cc(C(=O)NC(c4cccc(C(F)(F)F)c4)C(F)(F)F)n(C4CCC4)c3cc2Cl)CC1 (centres unmarked) [Compound 274]				efficacy in % ([1]; application rate 500 g/ha): 100%; efficacy in % ([2]; application rate 500 g/ha): 100%; efficacy in % ([3]; application rate 500 g/ha): 100%
4.24	C#CCn1c(C(=O)NC(c2cc(Cl)c(Cl)c(Cl)c2)C(F)(F)F)cc2cc(C(=O)NC3(C#N)CC3)c(Cl)cc21 (centres unmarked) [Compound 277]	100	100	90	
3.32	C#CCn1c(C(=O)NC(c2cccc(OC(F)F)c2)C(F)(F)F)cc2cc(C(=O)NC3CC3)c(Cl)cc21 (centres unmarked) [Compound 278]	100	100	90	
